This note sets out measurements from PMC6138237, “Machine intelligence decrypts β-lapachone as an allosteric 5-lipoxygenase inhibitor” (Chemical Science, 2018).

In one test the target is T1, SGK1 (Homo sapiens, UniProt O00141).
T1 sequence (O00141 1-431): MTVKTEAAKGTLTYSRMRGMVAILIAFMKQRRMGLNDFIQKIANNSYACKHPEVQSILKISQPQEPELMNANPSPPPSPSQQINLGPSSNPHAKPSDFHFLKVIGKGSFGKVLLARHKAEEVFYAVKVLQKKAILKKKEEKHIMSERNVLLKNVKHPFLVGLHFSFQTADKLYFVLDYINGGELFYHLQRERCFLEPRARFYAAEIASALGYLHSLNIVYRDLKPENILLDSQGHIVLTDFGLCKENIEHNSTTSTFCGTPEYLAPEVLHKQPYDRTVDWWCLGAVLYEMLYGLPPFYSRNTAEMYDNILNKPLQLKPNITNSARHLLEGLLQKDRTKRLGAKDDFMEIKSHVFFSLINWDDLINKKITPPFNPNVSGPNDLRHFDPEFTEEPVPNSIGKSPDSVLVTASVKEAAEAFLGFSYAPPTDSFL
In words: ExpresS Diversity Kinase Profile, Cerep (LANCE): SGK1. In kind it is biochemical. (In general: TR-FRET usually uses a lanthanide donor and a delayed reading to cut background.)

For another test, the target named is T2, AurA (Homo sapiens, UniProt O14965).
T2 sequence (O14965 1-403): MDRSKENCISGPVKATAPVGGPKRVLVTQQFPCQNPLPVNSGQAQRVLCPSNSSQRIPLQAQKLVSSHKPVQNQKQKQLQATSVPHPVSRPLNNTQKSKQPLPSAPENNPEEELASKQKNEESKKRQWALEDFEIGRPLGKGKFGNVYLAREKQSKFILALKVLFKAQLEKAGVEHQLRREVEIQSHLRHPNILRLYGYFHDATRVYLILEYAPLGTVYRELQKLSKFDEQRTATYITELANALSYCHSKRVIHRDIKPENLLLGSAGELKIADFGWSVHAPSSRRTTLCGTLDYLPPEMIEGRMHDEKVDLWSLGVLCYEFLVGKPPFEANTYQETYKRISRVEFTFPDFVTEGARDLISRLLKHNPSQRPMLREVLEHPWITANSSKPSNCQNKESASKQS
The experiment in a line: ExpresS Diversity Kinase Profile, Cerep (LANCE): AurA. In kind it is biochemical.

In a further test the target is T3, EphB4 (Homo sapiens, UniProt P54760).
T3 sequence (P54760 16-987): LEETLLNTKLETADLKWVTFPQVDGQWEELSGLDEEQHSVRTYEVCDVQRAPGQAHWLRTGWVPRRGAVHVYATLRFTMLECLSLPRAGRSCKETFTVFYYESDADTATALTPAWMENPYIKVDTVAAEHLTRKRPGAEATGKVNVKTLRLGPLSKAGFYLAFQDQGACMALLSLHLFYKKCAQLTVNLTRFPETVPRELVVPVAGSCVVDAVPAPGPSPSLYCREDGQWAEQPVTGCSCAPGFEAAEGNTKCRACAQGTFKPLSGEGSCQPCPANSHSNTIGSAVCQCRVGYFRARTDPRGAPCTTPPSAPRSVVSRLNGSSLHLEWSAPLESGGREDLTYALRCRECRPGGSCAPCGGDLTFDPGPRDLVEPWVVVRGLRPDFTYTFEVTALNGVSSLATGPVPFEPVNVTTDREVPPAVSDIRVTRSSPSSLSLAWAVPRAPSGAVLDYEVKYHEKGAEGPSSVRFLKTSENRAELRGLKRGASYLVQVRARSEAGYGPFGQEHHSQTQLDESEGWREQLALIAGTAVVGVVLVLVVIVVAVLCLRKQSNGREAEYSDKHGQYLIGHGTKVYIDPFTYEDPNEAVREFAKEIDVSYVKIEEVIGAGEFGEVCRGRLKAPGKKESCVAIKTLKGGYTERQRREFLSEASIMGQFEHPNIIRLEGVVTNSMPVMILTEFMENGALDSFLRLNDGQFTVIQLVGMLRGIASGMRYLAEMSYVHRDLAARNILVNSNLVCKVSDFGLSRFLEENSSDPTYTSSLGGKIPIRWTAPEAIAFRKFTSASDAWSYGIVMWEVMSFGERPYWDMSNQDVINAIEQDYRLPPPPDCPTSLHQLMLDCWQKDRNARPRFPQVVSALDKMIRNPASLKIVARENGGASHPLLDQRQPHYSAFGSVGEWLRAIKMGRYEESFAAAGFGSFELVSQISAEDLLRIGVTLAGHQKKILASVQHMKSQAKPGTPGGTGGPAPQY
The experiment in a line: ExpresS Diversity Kinase Profile, Cerep (LANCE): EphB4. It is filed as biochemical.

Another test has as its target c-Met (Homo sapiens, UniProt P08581). In words: ExpresS Diversity Kinase Profile, Cerep (LANCE): c-Met. In kind it is biochemical.
The target in the next test is SIK (Homo sapiens, UniProt P57059). In words: ExpresS Diversity Kinase Profile, Cerep (LANCE): SIK. In kind it is biochemical. The following applies: 150 µM.
Chain of SIK (P57059 whole entry): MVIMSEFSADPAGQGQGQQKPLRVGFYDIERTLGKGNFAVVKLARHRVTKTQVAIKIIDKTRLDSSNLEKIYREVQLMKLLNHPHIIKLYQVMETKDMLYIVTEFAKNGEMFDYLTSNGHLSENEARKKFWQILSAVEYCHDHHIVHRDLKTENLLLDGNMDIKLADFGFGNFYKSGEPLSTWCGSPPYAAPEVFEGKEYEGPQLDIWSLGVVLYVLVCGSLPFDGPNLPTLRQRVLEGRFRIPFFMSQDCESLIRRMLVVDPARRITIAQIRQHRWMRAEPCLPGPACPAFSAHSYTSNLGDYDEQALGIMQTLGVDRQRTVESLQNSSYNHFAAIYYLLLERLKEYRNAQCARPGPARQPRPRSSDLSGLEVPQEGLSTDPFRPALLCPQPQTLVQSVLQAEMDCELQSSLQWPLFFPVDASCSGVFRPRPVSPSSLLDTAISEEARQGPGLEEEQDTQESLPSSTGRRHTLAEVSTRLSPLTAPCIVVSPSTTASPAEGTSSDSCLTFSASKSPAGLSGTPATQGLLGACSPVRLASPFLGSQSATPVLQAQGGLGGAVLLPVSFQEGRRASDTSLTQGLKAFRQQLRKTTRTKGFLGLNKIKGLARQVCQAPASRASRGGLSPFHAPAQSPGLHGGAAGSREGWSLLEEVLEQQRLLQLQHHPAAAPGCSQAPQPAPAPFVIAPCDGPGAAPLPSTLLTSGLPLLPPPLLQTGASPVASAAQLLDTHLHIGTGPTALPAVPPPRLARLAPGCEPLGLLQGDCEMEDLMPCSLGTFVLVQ
A further test has as its target CDK2 (Homo sapiens, UniProt P24941). In words: ExpresS Diversity Kinase Profile, Cerep (LANCE): CDK2. In kind it is biochemical.
The target in the next test is Abl (Homo sapiens, UniProt P00519). The experiment in a line: ExpresS Diversity Kinase Profile, Cerep (LANCE): Abl. In kind it is biochemical.
Chain of Abl (P00519 whole entry): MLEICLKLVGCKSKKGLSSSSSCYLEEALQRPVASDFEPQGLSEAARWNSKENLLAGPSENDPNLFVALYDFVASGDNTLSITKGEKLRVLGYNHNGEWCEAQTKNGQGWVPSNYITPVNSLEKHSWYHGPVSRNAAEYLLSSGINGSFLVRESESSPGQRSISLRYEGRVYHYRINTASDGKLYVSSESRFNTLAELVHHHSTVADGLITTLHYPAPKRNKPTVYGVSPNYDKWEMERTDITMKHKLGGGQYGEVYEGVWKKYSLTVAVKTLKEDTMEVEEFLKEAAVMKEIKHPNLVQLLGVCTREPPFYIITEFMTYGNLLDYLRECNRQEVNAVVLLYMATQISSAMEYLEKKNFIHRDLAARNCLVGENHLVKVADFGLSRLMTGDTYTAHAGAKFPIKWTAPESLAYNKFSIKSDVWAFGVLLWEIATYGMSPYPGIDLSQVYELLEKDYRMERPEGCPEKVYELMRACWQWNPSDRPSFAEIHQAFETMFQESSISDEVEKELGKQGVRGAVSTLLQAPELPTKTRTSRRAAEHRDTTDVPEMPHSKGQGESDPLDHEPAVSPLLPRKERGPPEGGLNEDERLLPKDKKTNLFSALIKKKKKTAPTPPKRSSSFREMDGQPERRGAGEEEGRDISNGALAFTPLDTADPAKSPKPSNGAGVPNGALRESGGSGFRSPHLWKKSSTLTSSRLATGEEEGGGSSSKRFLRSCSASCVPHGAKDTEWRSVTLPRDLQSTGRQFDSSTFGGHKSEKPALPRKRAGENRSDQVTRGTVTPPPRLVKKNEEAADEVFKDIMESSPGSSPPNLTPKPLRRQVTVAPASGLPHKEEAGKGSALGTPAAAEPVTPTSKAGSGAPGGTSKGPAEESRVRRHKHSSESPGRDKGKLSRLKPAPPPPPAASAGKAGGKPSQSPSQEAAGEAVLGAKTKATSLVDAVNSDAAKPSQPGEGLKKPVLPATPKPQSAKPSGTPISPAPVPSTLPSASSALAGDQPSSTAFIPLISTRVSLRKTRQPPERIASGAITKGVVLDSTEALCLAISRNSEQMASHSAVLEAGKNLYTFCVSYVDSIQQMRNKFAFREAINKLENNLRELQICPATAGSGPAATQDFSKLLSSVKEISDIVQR
The next test has as its target TRPV1 (Homo sapiens, UniProt Q8NER1). The experiment in a line: TRPV1 functional antagonist assay, Cerep (capsaicin 30 nM). In kind it is cell-based.
Test [1] relates to Staphylococcus aureus ATCC 25923. In words: Minimum inhibitory concentration assay, Staphylococcus aureus. The following applies: concentrations up to 50 µM.
The next test deals with T4, EP3 (Homo sapiens, UniProt P43115).
T4 sequence (P43115 1-390): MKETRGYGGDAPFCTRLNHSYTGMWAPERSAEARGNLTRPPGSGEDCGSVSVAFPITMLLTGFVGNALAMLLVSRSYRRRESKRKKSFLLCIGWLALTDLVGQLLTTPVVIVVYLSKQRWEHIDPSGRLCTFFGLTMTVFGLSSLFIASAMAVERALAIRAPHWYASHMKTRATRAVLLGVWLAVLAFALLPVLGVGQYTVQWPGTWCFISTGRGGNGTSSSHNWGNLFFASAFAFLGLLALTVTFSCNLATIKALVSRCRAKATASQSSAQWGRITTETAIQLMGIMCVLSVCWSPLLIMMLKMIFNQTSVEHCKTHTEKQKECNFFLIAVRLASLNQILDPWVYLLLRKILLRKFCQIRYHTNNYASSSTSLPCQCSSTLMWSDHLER
The experiment in a line: EP3 functional agonist assay, Cerep (impedance).

Where [2] appears, read: Flag: Interference, read-out: % Inhibition of control values, 1st measurement.
Setting [3] is: Flag: Interference, read-out: % Inhibition of control values, 2nd measurement.
The mark [4] stands for this setting: n = 2, Flag: Interference, read-out: % Inhibition of control values, Mean.
Where [5] appears, read: n = 2, read-out: % Inhibition of control values, Mean.
Where [6] appears, read: read-out: % Inhibition of control values, 1st measurement.
Setting [7] is: read-out: % Inhibition of control values, 2nd measurement.

One may read the inhibition as the relative decrease from the control value, in per cent. In general, IC50 refers to the concentration at which inhibition is half-maximal. A lower IC50 goes with greater potency.

Structures are written as SMILES. Read-outs that look alike come from different tables or passages of the source.

Chain of c-Met (P08581 25-1390): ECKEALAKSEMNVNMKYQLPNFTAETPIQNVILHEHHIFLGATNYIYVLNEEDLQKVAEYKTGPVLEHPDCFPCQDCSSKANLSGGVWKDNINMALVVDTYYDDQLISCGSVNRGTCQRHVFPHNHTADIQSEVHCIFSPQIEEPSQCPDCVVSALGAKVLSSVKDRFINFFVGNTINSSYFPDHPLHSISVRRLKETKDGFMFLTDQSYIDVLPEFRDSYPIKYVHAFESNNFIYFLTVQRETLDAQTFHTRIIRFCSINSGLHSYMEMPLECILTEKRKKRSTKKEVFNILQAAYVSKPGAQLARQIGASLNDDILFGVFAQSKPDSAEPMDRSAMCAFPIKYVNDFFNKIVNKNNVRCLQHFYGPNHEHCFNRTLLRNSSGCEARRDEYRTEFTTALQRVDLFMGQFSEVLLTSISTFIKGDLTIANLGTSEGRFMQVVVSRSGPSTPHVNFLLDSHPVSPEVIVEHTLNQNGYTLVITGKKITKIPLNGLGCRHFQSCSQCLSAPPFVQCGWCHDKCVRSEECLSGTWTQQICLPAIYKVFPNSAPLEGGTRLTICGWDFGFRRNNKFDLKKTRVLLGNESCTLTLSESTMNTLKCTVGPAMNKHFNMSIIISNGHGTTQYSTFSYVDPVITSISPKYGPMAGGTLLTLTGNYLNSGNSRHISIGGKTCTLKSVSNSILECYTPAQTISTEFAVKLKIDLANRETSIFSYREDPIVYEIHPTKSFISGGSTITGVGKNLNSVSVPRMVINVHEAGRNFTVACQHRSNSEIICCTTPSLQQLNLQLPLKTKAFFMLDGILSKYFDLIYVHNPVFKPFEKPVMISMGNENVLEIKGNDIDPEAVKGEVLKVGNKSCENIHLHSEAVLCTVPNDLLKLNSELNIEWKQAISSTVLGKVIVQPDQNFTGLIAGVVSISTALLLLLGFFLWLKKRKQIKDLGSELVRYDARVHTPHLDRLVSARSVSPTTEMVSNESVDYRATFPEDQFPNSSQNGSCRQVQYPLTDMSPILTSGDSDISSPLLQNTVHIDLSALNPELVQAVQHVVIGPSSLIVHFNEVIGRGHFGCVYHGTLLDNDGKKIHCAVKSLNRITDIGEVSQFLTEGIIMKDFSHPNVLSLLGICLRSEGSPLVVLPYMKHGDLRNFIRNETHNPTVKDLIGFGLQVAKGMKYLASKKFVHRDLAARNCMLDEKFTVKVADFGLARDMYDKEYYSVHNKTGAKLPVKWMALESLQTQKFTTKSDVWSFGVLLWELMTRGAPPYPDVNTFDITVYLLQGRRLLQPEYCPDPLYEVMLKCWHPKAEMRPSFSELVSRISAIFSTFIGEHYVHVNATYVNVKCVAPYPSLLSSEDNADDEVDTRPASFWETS
Chain of TRPV1 (Q8NER1 whole entry): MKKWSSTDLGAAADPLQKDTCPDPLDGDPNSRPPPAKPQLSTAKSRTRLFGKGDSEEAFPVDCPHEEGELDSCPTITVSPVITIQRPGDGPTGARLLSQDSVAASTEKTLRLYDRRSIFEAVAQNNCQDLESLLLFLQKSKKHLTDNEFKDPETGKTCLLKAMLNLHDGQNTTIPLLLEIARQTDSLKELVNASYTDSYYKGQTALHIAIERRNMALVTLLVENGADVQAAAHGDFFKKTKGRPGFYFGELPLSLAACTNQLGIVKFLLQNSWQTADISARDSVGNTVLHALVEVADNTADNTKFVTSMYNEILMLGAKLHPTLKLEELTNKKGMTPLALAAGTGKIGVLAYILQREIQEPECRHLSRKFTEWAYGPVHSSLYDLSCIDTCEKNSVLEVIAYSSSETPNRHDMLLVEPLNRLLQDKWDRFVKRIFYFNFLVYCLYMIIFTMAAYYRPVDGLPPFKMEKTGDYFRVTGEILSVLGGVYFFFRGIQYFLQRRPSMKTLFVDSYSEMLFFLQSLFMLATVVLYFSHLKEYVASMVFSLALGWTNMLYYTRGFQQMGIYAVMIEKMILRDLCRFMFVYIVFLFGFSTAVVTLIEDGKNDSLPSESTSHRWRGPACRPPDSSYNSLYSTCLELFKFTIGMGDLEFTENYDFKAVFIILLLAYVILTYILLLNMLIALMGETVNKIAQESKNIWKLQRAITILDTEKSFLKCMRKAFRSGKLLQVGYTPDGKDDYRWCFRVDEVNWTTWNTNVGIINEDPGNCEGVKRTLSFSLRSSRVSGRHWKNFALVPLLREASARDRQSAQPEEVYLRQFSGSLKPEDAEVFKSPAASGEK

On to `CN[C@@H]1C[C@H]2O[C@@](C)([C@@H]1OC)n1c3ccccc3c3c4c(c5c6ccccc6n2c5c31)C(=O)NC4` [Staurosporine, reference compound], for which the nHill at SGK1 (control) is more than 3; on AurA (control), 2.5; at EphB4 (control) it was 1.1; on c-Met (control) it was 1.8.
On to `CC1(C)CCC2=C(O1)c1ccccc1C(=O)C2=O` [β-Lapachone], for which the inhibition at 150 µM worked out at 41.8% at SIK (setting [2]); 40.3% on SIK (setting [3]); 41% on SIK (setting [4]); 78.2% on CDK2 (setting [5]); 79.4% on CDK2 (setting [6]); 77.1% on CDK2 (setting [7]). The inhibition at 150 µM was found to be 42.4% on Abl (setting [5]); 42.9% at Abl (setting [6]); 41.8% on Abl (setting [7]); 54.5% on SGK1 (setting [5]); 54.4% on SGK1 (setting [6]); 54.5% on SGK1 (setting [7]). For the same compound, the inhibition at 150 µM on AurA (setting [2]) was -16.5%; on AurA (setting [3]) it was 0.2%; at AurA (setting [4]) it was -8.1%; at EphB4 (setting [2]) it was 54.6%; at EphB4 (setting [3]), 55.1%; on EphB4 (setting [4]), 54.8%. Moreover, the values for the inhibition at 150 µM on c-Met (setting [2]), on c-Met (setting [3]) and at c-Met (setting [4]) were 45.3%, 50.6% and 47.9%, respectively. The compound also gave an IC50 at TRPV1 of approximately 100 µM. Further, in test [1], the “phenotypic effects on Staphylococcus aureus” value is “No phenotypic effects”. Besides, the remaining activity at 150 µM at EP3 (read-out: % of control values, 1st measurement) was determined as 18.6%; on EP3 (read-out: % of control values, 2nd measurement) it was 15.5%; on EP3 (read-out: % of control values, Mean), 17%.
